Results as given in US5521315A, “Olefin substituted long chain compounds” (priority 1993, dated 1996).

Columns and labels:
[1] = tested on: CMV promoter activity in transformed (adenovirus) cells; assay: CMV promoter assay (gene transcription and translation; cytotoxicity in transformed cells); format: cell-based; conditions: for cytotoxicity ranking in CMV promoter assay: Table 2 / FIG. 18
From the text: (§1) FIG. 18 illustrates data regarding proliferative activity of various inventive compounds for inducting CMV promoter activity. The CMV promoter assay measures gene transcription and translation activity wherein any active compounds will have cytotoxic activity to inhibit cellular protein synthesis machinery in transformed (adenovirus) cells.
as §1, with “This example” for “FIG. 18”

[2] = tested on: mast cell degranulation; assay: Serotonin release assay (inhibition of mast cell degranulation); format: cell-based; conditions: for RELEASE-SPONT: average corrected for spontaneous release; for AVERAGE % RELEASE: average of duplicates; for % INHIBITION (serotonin release): Table 3
From the text: A serotonin release assay is utilized to study the utility of the inventive compounds for treatment of asthma and allergy. […] This assay measures mast cell degranulation, which is an early phase reaction to allergen challenge. Mast cells grown in tissue culture are first loaded with ^3 H serotonin, which is incorporated into the granules in the cells. The mast cells are sensitized with antigen specific monoclonal IgE, and then triggered to degranulate with the specific antigen (dinitorphenolbound to BSA (DNP)). When the cells degranulate, ^3 H Serotonin is released into the medium, and can be measured directly. The ability of the inventive compounds to inhibit the degranulation response is determined by the decrease in ^3 H Serotonin released in the presence of drug and is represented as % INHIBITION.
Specifically, the serotonin release assay seeds 2×10^5 cells in 0.5 ml medium in duplicate for spontaneous release, IgE+DNP, IgE+DNP+EtOH (vehicle control), and inventive compounds. […] The cells are incubated for 18 hours at 37° C. in 5% CO2, washed twice with 0.5 ml Isotonic Buffer (25 mM disodium PIPES pH 7.1,100 mM NaCl, 5 mM KCl, 5 mM glucose, 0.4 mM MgCl2, 1mM CaCl2, 0.1% BSA), and sterile filtered. 250 μl Isotonic Buffer is added per well and the plates are equilibrated in an incubator for about 10 min. Drug is added and cells are activated with 40 ng/ml DNP-BSA (1 mg/ml Diluted 1:200 in Isotonic Buffer) for 45 minutes using 2 μl/250 μl. Spontaneous release is determined in incubated cells with 250 μl Isotonic Buffer for 45 minutes and the reaction is stopped by removing supernatant and centrifuging at ~4000 rpm in microfuge for 15 seconds to remove any detached cells. Released radiolableled serotonin is counted. To determine amount of ^3 H-serotonin incorporated into the cells, (a) remove Isotonic Buffer and lyse cells by adding 250 μl 1% Triton-X100 in PBS, (b) add to 5 ml scintillation fluid, (c) wash 2× with Triton/PBS, and (d) add washes to scintillation tube. Percent serotonin release is calculated by dividing the amount of released serotonin by the sum of incorporated plus released serotonin and correcting for spontaneous released serotonin. Compound inhibition is calculated by dividing the percent serotonin release in the presence of a compound by the percent serotonin release in the absence of the compound.
This assay is described above and provides an in vitro model for an allergy and asthma therapeutic product.

| Structure (SMILES) | IC50 [1] [µM] | RELEASE-SPONT ([2]; 50 μM, Table 4) [%] | AVERAGE % RELEASE ([2]; 50 μM, Table 4) [%] | inhibition at 50 µM ([2]; Mast cell, 50 μM, Table 4) [%] | activity in serotonin release assay ([2]; 50 μM) | cytotoxicity ranking in CMV promoter assay [1] | RELEASE-SPONT ([2]; 25 uM, Table 4) [%] | AVERAGE % RELEASE ([2]; 25 uM, Table 4) [%] | inhibition at 25 µM ([2]; Mast cell, 25 uM, Table 4) [%] | % INHIBITION (serotonin release) ([2]; 50 μM) |
| --- | --- | --- | --- | --- | --- | --- | --- | --- | --- | --- |
| C=CCCCCN1C(=O)c2ccccc2C1=O [CT1101, N(5-hexenyl)phthalimide] | 250 | 2.05 | 18.60 | 74.5 | – | – | – | – | – | – |
| C=CCCCCCCCN1C(=O)c2ccccc2C1=O [CT1102, N(8-nonenyl)phthalimide] | 175 | 2.32 | 18.88 | 71.1 | – | – | – | – | – | – |
| C=CCCCCn1c(=O)n(C)c(=O)c2ccccc21 [CT1203, 1-(5-hexenyl)-3-methylbenzoyleneurea] | – | -1.12 | 15.43 | 114 | appear to be quite potent | – | – | – | – | – |
| C=CCCCCCCCn1c(=O)c2[nH]cnc2n(C)c1=O [CT1405, 1-(8-nonenyl)-3-methylxanthine] | 100 | 5.13 | 21.69 | 36 | – | – | – | – | – | – |
| C=CCCCCn1c(=O)c2[nH]cnc2n(C)c1=O [CT1438, 1-(5-hexenyl)-3-methylxanthine] | > 500 | – | – | – | – | – | – | – | – | – |
| C=CCn1c(=O)c2c(ncn2C)n(C)c1=O [CT1531, 1-(2-propenyl)-3,7-dimethylxanthine] | 50 | 6.99 | 23.55 | 12.8 | – | – | – | – | – | – |
| C=CCCCCCCCn1c(=O)c2c(ncn2C)n(C)c1=O [CT1550, 1-(8-nonenyl)-3,7-dimethylxanthine] | 75 | 6.94 | 23.50 | 13.4 | – | – | – | – | – | – |
| C=CCCCn1c(=O)c2c(ncn2C)n(C)c1=O [CT1575, 1-(4-pentenyl)-3,7-dimethylxanthine] | > 500 | 4.33 | 20.89 | 46 | the two most potent compounds in this group | – | – | – | – | – |
| C/C=C/CCCn1c(=O)c2c(ncn2C)n(C)c1=O [CT1581, 1-(trans-4-Hexenyl)-3,7-dimethylxanthine] | > 500 | 4.31 | 20.87 | 46.3 | – | – | – | – | – | – |
| CC(C)=CCC[C@@H](C)CCn1c(=O)c2c(ncn2C)n(C)c1=O [CT1596R, 1-(3-(R)-methyl-7-methyloct-6-enyl)-3,7-dimethylxanthine] | > 500 | 6.59 | 23.14 | 17.9 | – | – | – | – | – | – |
| CC(C)=CCC[C@H](C)CCn1c(=O)c2c(ncn2C)n(C)c1=O [CT1596S, 1-(3-(S)-methyl-7-methyloct-6-enyl)-3,7-dimethylxanthine] | 40 | 3.15 | 19.71 | 60.7 | – | the most cytotoxic compound tested | – | – | – | – |
| C=CCCCCCCCN1C(=O)CCCC1=O [CT1604, N-(8-nonenyl)glutarimide] | 100 | 0.41 | 16.96 | 94.9 | appear to be quite potent | – | 4.85 | 21.41 | 39.5 | – |
| CC/C=C\CCCCCN1C(=O)CCCC1=O [CT1607, N-(6-cis-nonenyl)glutarimide] | – | 3.82 | 20.38 | 52.3 | appears to decrease the activity | – | – | – | – | – |
| C=CCCCCCCCCCN1C(=O)CCCC1=O [CT1610, N-(10-undecenyl)glutarimide] | – | 2.27 | 18.83 | 71.7 | – | – | – | – | – | – |
| C=CCCCCN1C(=O)CCN(C)C1=O [CT1812, 3-(5-hexenyl)-1-methyldihydrouracil] | > 100 | 8.27 | 24.83 | -3.14 | just not having much of an effect at 50 μM | – | – | – | – | no inhibi- |
| CC/C=C\CCCCCn1c(=O)ccn(C)c1=O [CT1814, 3-(6-cis-nonenyl)1-methyluracil] | 100 | 5.94 | 22.50 | 25.9 | appears to decrease the activity | – | – | – | – | – |

| Structure (SMILES) | IC50 [1] [µM] | RELEASE-SPONT ([2]; 50 μM, Table 4) [%] | AVERAGE % RELEASE ([2]; 50 μM, Table 4) [%] | inhibition at 50 µM ([2]; Mast cell, 50 μM, Table 4) [%] | activity in serotonin release assay ([2]; 50 μM) | cytotoxicity ranking in CMV promoter assay [1] | RELEASE-SPONT ([2]; 25 uM, Table 4) [%] | AVERAGE % RELEASE ([2]; 25 uM, Table 4) [%] | inhibition at 25 µM ([2]; Mast cell, 25 uM, Table 4) [%] | % INHIBITION (serotonin release) ([2]; 50 μM) |
| --- | --- | --- | --- | --- | --- | --- | --- | --- | --- | --- |
| C=CCCCCCCCn1c(=O)ccn(C)c1=O [CT1817, 3-(8-nonenyl)1-methyluracil] | 250 | 3.57 | 20.12 | 55.5 | – | – | – | – | – | – |
| C=CCCCCCCCCCN1C(=O)CCN(C)C1=O [CT1819, 3-(10-undecenyl)-1-methyldihydrouracil] | – | 9.42 | 25.98 | -17.5 | just not having much of an effect at 50 μM | – | – | – | – | no inhibi- |
| C=CCCCCCCCCCn1c(=O)ccn(C)c1=O [CT1823, 3-(10-undecenyl)1-methyluracil] | – | 4.72 | 21.28 | 41.1 | – | – | – | – | – | – |
| C=CCCCCn1c(=O)c(C)cn(C)c1=O [CT1905, 3-(5-hexenyl)-1-methylthymine] | > 500 | 4.94 | 21.49 | 38.5 | – | – | – | – | – | – |
| CC/C=C\CCCCCn1c(=O)c(C)cn(C)c1=O [CT1916, 3-(6-cis-nonenyl)-1-methylthymine] | 250 | 6.02 | 22.58 | 24.9 | appears to decrease the activity | – | – | – | – | – |
| C=CCCCCCCCn1c(=O)c(C)cn(C)c1=O [CT1917, 3-(8-nonenyl)-1-methylthymine] | 75 | 3.75 | 20.31 | 53.2 | – | – | – | – | – | – |
| C=CCCCCCCCCCn1c(=O)c(C)cn(C)c1=O [CT1931, 3-(10-undecenyl)-1-methylthymine] | – | 2.23 | 18.78 | 72.2 | – | – | – | – | – | – |
| C=CCCn1c(=O)c2c(ncn2C)n(C)c1=O [CT2503, 1-(3-butenyl)-3,7-dimethylxanthine] | > 500 | 4.87 | 21.43 | 39.2 | – | – | – | – | – | – |
| C=CC(O)CCCCCn1c(=O)c2c(ncn2C)n(C)c1=O (centres unmarked) [CT2508, 1-(6-hydroxy-7-octenyl)-3,7-dimethylxanthine] | > 500 | 2.89 | 19.44 | 64 | – | – | – | – | – | – |
| C=CCCCCCCCCCCn1c(=O)c2c(ncn2C)n(C)c1=O [CT2516, 1-(11-dodecenyl)-3,7-dimethylxanthine] | – | 5.57 | 22.12 | 30.6 | – | – | – | – | – | – |
| CCCCCCCCC=CCCCCCCCCn1c(=O)c2c(ncn2C)n(C)c1=O [CT2539, 1-(9-octadecenyl)-3,7-dimethylxanthine] | > 100 | 3.13 | 19.69 | 61 | – | – | – | – | – | – |
| CC(C)=CCCC(C)=CCCC(C)=CCn1c(=O)c2c(ncn2C)n(C)c1=O [CT2544, 1-(Farnesyl)-3,7-dimethylxanthine] | 20 | -1.11 | 15.44 | 114 | – | the most cytotoxic compound tested | – | – | – | – |
| CC(C)=CCC/C(C)=C/Cn1c(=O)c2c(ncn2C)n(C)c1=O [CT2545, 1-(Geranyl)-3,7-dimethylxanthine] | 75 | 2.49 | 19.05 | 68.9 | – | – | – | – | – | – |
| C=CCCCCCCCCCCCn1c(=O)c2c(ncn2C)n(C)c1=O [CT2555, 1-(12-tridecenyl)-3,7-dimethylxanthine] | – | 5.72 | 21.68 | 36.1 | – | – | – | – | – | – |
| CC/C=C\CCCCCCn1c(=O)c2c(ncn2C)n(C)c1=O [CT2560, 1-(7-cis-decenyl)-3,7-dimethylxanthine] | – | 2.96 | 19.51 | 63.1 | appears to increase the activity | – | – | – | – | – |
